The IC50 is the concentration at which inhibition is half-maximal.

The structures appear in SMILES notation.

The target in this experiment is human NaV 1.8 channels stably expressed in HEK 293 cells (Homo sapiens (Human), UniProt Q9Y5Y9). Briefly: Nav1.8 Qube automated patch-clamp assay. The note with it: human NaV1.8 in HEK 293 cells, whole-cell voltage clamp, room temperature; read-out: IC50 values (nM) for Examples in the Nav1.8 Qube Assay. The experiment is classed as cell-based. A digest of the protocol: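 Whole-cell voltage clamp at room temperature on HEK293 cells; from −90 mV, a 10 s 1 Hz train of 20 ms pulses to 10 mV (repolarising to −67 mV) was applied. Peak currents at pulses 1 and 10 gave resting- and inactivated-state inhibition; IC50 fitted by Hill equation. Internal CsF/CsCl buffer.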
Chain of human NaV 1.8 channels stably expressed in HEK 293 cells (Q9Y5Y9 whole entry): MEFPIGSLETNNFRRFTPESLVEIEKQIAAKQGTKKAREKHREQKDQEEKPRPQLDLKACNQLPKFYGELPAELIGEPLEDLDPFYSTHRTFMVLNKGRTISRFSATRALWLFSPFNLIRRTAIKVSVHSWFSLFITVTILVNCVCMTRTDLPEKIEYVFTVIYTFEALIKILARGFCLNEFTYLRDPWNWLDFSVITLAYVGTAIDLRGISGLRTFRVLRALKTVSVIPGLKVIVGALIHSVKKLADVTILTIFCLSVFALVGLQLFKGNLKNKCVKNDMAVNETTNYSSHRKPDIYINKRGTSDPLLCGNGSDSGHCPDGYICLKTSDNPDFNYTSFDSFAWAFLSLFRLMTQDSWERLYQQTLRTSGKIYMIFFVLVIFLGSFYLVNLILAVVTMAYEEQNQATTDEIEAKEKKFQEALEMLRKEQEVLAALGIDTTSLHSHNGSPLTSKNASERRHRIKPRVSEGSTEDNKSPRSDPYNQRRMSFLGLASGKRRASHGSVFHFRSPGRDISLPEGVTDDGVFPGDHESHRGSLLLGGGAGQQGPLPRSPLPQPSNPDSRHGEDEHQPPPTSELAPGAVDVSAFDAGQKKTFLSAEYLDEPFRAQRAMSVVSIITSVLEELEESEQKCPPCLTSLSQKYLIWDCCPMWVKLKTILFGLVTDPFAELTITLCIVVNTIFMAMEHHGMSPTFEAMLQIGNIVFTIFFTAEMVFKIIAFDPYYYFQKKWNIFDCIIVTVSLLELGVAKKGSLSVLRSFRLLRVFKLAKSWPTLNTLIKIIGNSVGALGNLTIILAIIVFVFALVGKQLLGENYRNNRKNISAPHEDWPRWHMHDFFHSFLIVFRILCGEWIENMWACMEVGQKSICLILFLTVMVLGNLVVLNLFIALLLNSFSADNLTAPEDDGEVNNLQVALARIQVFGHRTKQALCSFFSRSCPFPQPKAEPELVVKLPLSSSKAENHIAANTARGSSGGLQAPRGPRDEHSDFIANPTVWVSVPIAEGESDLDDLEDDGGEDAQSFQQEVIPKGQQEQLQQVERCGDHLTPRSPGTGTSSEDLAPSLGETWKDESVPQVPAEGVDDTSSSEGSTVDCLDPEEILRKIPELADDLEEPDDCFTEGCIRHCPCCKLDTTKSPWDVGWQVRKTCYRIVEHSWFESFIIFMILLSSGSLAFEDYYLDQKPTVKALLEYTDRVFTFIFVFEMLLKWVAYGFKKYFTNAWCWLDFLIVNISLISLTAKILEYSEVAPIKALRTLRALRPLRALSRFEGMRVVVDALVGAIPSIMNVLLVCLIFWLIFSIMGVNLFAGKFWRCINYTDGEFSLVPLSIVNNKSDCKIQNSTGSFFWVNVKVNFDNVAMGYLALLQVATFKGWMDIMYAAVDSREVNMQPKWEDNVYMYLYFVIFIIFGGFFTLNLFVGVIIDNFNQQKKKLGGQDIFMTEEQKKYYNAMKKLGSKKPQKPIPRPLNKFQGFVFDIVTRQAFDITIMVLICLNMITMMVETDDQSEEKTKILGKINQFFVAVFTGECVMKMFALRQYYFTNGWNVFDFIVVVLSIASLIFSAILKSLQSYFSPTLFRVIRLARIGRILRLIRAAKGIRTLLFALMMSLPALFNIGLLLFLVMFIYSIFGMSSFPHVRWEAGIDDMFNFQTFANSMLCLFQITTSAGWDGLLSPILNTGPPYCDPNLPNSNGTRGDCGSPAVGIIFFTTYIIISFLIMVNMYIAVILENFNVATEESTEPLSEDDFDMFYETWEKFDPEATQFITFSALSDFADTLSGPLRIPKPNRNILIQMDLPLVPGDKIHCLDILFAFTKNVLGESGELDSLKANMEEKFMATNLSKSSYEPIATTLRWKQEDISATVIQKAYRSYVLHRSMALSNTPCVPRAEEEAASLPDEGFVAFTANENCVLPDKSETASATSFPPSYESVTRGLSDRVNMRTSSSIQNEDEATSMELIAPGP
In general terms: In patch-clamp work, channel activity is measured electrically.
As to `C[C@@H]1C(=O)NCCN1C(=O)NC(c1ccc(OC(F)(F)F)nc1)c1ccc(F)c(C(F)(F)F)n1` (single isomer, unassigned) [Example 51A, (2R)-N-((R or S)-(5-fluoro-6-(trifluoromethyl)pyridin-2-yl)(6-(trifluoro-methoxy)pyridin-3-yl)methyl)-2-methyl-3-oxopiperazine-1-carboxamide], the IC50 came to 129 nM.
To `C[C@@H]1C(=O)NCCN1C(=O)NC(c1ccc(OC(F)(F)F)nc1)c1ccc(F)c(C(F)(F)F)n1` (single isomer, unassigned) [Example 51B, (2R)-N-((S or R)-(5-fluoro-6-(trifluoro-methyl)pyridin-2-yl)(6-(trifluoromethoxy)pyridin-3-yl)methyl)-2-methyl-3-oxopiperazine-1-carboxamide] belongs 13.2 nM; to `C[C@@H]1C(=O)NCCN1C(=O)NC(c1ccc(Cl)c(C#N)c1)c1ccc(F)c(C(F)(F)F)n1` (single isomer, unassigned) [Example 52A, (2R)-N-((R or S)-(4-chloro-3-cyano-phenyl)(5-fluoro-6-(trifluoromethyl)pyridin-2-yl)methyl)-2-methyl-3-oxopiperazine-1-carboxamide], 5.79 nM; to `C[C@@H]1C(=O)NCCN1C(=O)NC(c1ccc(Cl)c(C#N)c1)c1ccc(F)c(C(F)(F)F)n1` (single isomer, unassigned) [Example 52B, (2R)-N-((S or R)-(4-chloro-3-cyano-phenyl)(5-fluoro-6-(trifluoromethyl)pyridin-2-yl)methyl)-2-methyl-3-oxopiperazine-1-carboxamide], 64.5 nM.
Next, `C[C@@H]1C(=O)NCCN1C(=O)NC(c1ccc(Cl)c(F)c1)c1ccc(F)c(C(F)(F)F)n1` (single isomer, unassigned) [Example 53A, (2R)-N-((R or S)-(4-chloro-3-fluoro-phenyl)(5-fluoro-6-(trifluoromethyl)pyridin-2-yl)methyl)-2-methyl-3-oxopiperazine-1-carboxamide]: 68.9 nM; `C[C@@H]1C(=O)NCCN1C(=O)NC(c1ccc(Cl)c(F)c1)c1ccc(F)c(C(F)(F)F)n1` (single isomer, unassigned) [Example 53B, (2R)-N-((S or R)-(4-chloro-3-fluoro-phenyl)(5-fluoro-6-(trifluoromethyl)pyridin-2-yl)methyl)-2-methyl-3-oxopiperazine-1-carboxamide]: 1.38 nM.
To `O=C1CN(C(=O)NC(c2ccc(Cl)c(F)c2)c2ccc(F)c(C(F)(F)F)n2)CCN1` (single isomer, unassigned) [Example 54A, N-((R or S)-(4-chloro-3-fluorophenyl)(5-fluoro-6-(trifluoromethyl)pyridin-2-yl)methyl)-3-oxopiperazine-1-carboxamide] belongs 285 nM.
As for `O=C1CN(C(=O)NC(c2ccc(Cl)c(F)c2)c2ccc(F)c(C(F)(F)F)n2)CCN1` (single isomer, unassigned) [Example 54B, N-((S or R)-(4-chloro-3-fluorophenyl)(5-fluoro-6-(trifluoromethyl)pyridin-2-yl)methyl)-3-oxopiperazine-1-carboxamide], the concentration for half-maximal inhibition (IC50) came to 4.14 nM.
Next, `C[C@@H]1C(=O)NCCN1C(=O)NC(c1ccc(OC(F)(F)F)cc1)c1ccc(F)c(C(F)(F)F)n1` (single isomer, unassigned) [Example 55A, (2R)-N-((R or S)-(5-fluoro-6-(trifluoro-methyl)pyridin-2-yl)(4-(trifluoromethoxy)phenyl)methyl)-2-methyl-3-oxopiperazine-1-carboxamide]: 2.68 nM; `C[C@@H]1C(=O)NCCN1C(=O)NC(c1ccc(OC(F)(F)F)cc1)c1ccc(F)c(C(F)(F)F)n1` (single isomer, unassigned) [Example 55B, (2R)-N-((S or R)-(5-fluoro-6-(trifluoro-methyl)pyridin-2-yl)(4-(trifluoromethoxy)phenyl)methyl)-2-methyl-3-oxopiperazine-1-carboxamide]: 15.7 nM; `C[C@@H]1C(=O)NCCN1C(=O)NC(c1ccc(OC(F)(F)F)c(F)c1)c1ccc(F)c(C(F)(F)F)n1` (single isomer, unassigned) [Example 56A, (2R)-N-((R or S)-(3-fluoro-4-(trifluoro-methoxy)phenyl)(5-fluoro-6-(trifluoro-methyl)pyridin-2-yl)methyl)-2-methyl-3-oxopiperazine-1-carboxamide]: 11.7 nM.
To `C[C@@H]1C(=O)NCCN1C(=O)NC(c1ccc(OC(F)(F)F)c(F)c1)c1ccc(F)c(C(F)(F)F)n1` (single isomer, unassigned) [Example 56B, (2R)-N-((S or R)-(3-fluoro-4-(trifluoro-methoxy)phenyl)(5-fluoro-6-(trifluoro-methyl)pyridin-2-yl)methyl)-2-methyl-3-oxopiperazine-1-carboxamide] belongs 1.31 nM; to `C[C@@H]1C(=O)NCCN1C(=O)NC(c1ccc(OCC(F)(F)F)cc1)c1ccc(F)c(C(F)(F)F)n1` (single isomer, unassigned) [Example 57A, (2R)-N-((R or S)-(5-fluoro-6-(trifluoro-methyl)pyridin-2-yl)(4-(2,2,2-trifluoro-ethoxy)phenyl)methyl)-2-methyl-3-oxopiperazine-1-carboxamide], 6.79 nM; to `C[C@@H]1C(=O)NCCN1C(=O)NC(c1ccc(OCC(F)(F)F)cc1)c1ccc(F)c(C(F)(F)F)n1` (single isomer, unassigned) [Example 57B, (2R)-N-((S or R)-(5-fluoro-6-(trifluoro-methyl)pyridin-2-yl)(4-(2,2,2-trifluoro-ethoxy)phenyl)methyl)-2-methyl-3-oxopiperazine-1-carboxamide], 125 nM.
To `C[C@@H]1C(=O)NCCN1C(=O)NC(c1cccc(OC(F)(F)F)c1)c1ccc(F)c(C(F)(F)F)n1` (single isomer, unassigned) [Example 58A, (2R)-N-((R or S)-(5-fluoro-6-(trifluoro-methyl)pyridin-2-yl)(3-(trifluoromethoxy)phenyl)methyl)-2-methyl-3-oxopiperazine-1-carboxamide] belongs 3.6 nM.
For the compound `C[C@@H]1C(=O)NCCN1C(=O)NC(c1ccc(OC2CC2)c(F)c1)c1ccc(F)c(C(F)(F)F)n1` (single isomer, unassigned) [Example 59A, (2R)-N-((R or S)-(4-cyclopropoxy-3-fluorophenyl)(5-fluoro-6-(trifluoromethyl)pyridin-2-yl)methyl)-2-methyl-3-oxopiperazine-1-carboxamide], the IC50 was determined as 3.33 nM.
As to `C[C@@H]1C(=O)NCCN1C(=O)NC(c1ccc(OC2CC2)c(F)c1)c1ccc(F)c(C(F)(F)F)n1` (single isomer, unassigned) [Example 59B, (2R)-N-((S or R)-(4-cyclopropoxy-3-fluorophenyl)(5-fluoro-6-(trifluoromethyl)pyridin-2-yl)methyl)-2-methyl-3-oxopiperazine-1-carboxamide], the concentration for half-maximal inhibition (IC50) came to 31.8 nM.
Next, `C[C@@H]1C(=O)NCCN1C(=O)NC(c1ccc(F)c(C(F)(F)F)n1)c1ccc(F)c(Cl)c1F` (single isomer, unassigned) [Example 60A, (2R)-N-((R or S)-(3-chloro-2,4-difluoro-phenyl)(5-fluoro-6-(trifluoromethyl)pyridin-2-yl)methyl)-2-methyl-3-oxopiperazine-1-carboxamide]: 2.19 nM; `C[C@@H]1C(=O)NCCN1C(=O)NC(c1ccc(F)c(C(F)(F)F)n1)c1ccc(F)c(Cl)c1F` (single isomer, unassigned) [Example 60B, (2R)-N-((S or R)-(3-chloro-2,4-difluoro-phenyl)(5-fluoro-6-(trifluoromethyl)pyridin-2-yl)methyl)-2-methyl-3-oxopiperazine-1-carboxamide]: 8.29 nM.
For the compound `C[C@@H]1C(=O)NCCN1C(=O)NC(c1ccc(OC(F)(F)F)c(F)c1)c1ccc(C#N)c(C(F)(F)F)n1` (single isomer, unassigned) [Example 61A], the IC50 is 1.02 nM.
To `C[C@@H]1C(=O)NCCN1C(=O)NC(c1ccc(OC(F)(F)F)c(F)c1)c1ccc(C#N)c(C(F)(F)F)n1` (single isomer, unassigned) [Example 61B] belongs 3.83 nM.
In the case of `C[C@@H]1C(=O)NCCN1C(=O)NC(c1cnc(C(F)(F)F)s1)c1ccc(F)c(Cl)c1F` (single isomer, unassigned) [Example 62A], the 50% inhibitory concentration (IC50) turned out to be 197 nM.
For the compound `C[C@@H]1C(=O)NCCN1C(=O)NC(c1cnc(C(F)(F)F)s1)c1ccc(F)c(Cl)c1F` (single isomer, unassigned) [Example 62B], the IC50 came out at 2.45 nM.
To `C[C@@H]1C(=O)NCCN1C(=O)NC(c1ccc(OC(F)(F)F)c(Cl)c1)c1cnn(C(F)(F)F)c1` (single isomer, unassigned) [Example 63A, (2R)-N-((R or S)-(3-chloro-4-(trifluoro-methoxy)phenyl)(1-(trifluoromethyl)-1H-pyrazol-4-yl)methyl)-2-methyl-3-oxopiperazine-1-carboxamide] belongs 1.12 nM; to `C[C@@H]1C(=O)NCCN1C(=O)NC(c1ccc(OC(F)(F)F)c(Cl)c1)c1cnn(C(F)(F)F)c1` (single isomer, unassigned) [Example 63B, (2R)-N-((S or R)-(3-chloro-4-(trifluoro-methoxy)phenyl)(1-(trifluoromethyl)-1H-pyrazol-4-yl)methyl)-2-methyl-3-oxopiperazine-1-carboxamide], 13.5 nM.
Next, `C[C@@H]1C(=O)NCCN1C(=O)NC(c1ccc(OC(F)(F)F)c(Cl)c1)c1coc(C(F)(F)F)n1` (single isomer, unassigned) [Example 64A, (2R)-N-((R or S)-(3-chloro-4-(trifluoro-methoxy)phenyl)(2-(trifluoromethyl)oxazol-4-yl)methyl)-2-methyl-3-oxopiperazine-1-carboxamide]: 4.96 nM.

Source of the values: patent publication US20240246932A1 (Merck Sharp & Dohme LLC, priority 2021, published 2024).
